The values below come from patent publication US11708369B2, “Heteroaromatic compounds having activity against RSV” (Janssen Sciences Ireland Unlimited Company, priority 2018, dated 2023).

One data set is described as follows: in vitro. Conditions: human.
The next data set relates to rgRSV224 virus. Kind of data set: Antiviral activity: rgRSV224 (GFP) replication in HeLa cells. Conditions: human respiratory syncytial virus, 72 h, read-out: RSV HELA EC50.

Description for in vitro: The wells contain 0.05% DMSO per volume. Cells were incubated at 37° C. in a 5% CO2 atmosphere. […] In parallel, compounds were incubated for three days in a set of white 384-well microtiter plates (Corning) and the cytotoxicity of compounds in HeLa cells was determined by measuring the ATP content of the cells using the ATPlite kit (Perkin Elmer, Zaventem, Belgium) according to the manufacturer's instructions. The CC50 was defined as the 50% concentration for cytotoxicity.
Description for rgRSV224 virus: Black 384-well clear-bottom microtiter plates (Corning, Amsterdam, The Netherlands) were filled via acoustic drop ejection using the echo liquid handler (Labcyte, Sunnyvale, Calif.). 200 nL of compound stock solutions (100% DMSO) were transferred to the assay plates. 9 serial 4-fold dilutions of compound were made, creating per quadrant the same compound concentration. The assay was initiated by adding 10 μL of culture medium to each well (RPMI medium without phenol red, 10% FBS-heat inactivated, 0.04% gentamycin (50 mg/mL). All addition steps are done by using a multidrop dispenser (Thermo Scientific, Erembodegem, Belgium). Next, rgRSV224 virus (MOI=1) diluted in culture medium was added to the plates. rgRSV224 virus is an engineered virus that includes an additional GFP gene (Hallak L K, Spillmann D, Collins P L, Peeples M E. Glycosaminoglycan sulfation requirements for respiratory syncytial virus infection; Journal of virology (2000), 74(22), 10508-13) and was in-licensed from the NIH (Bethesda, Md., USA). Finally, 20 μL of a HeLa cell suspension (3,000 cells/well) were plated. Medium, virus- and mock-infected controls were included in each test. The wells contain 0.05% DMSO per volume. Cells were incubated at 37° C. in a 5% CO2 atmosphere. Three days post-virus exposure, viral replication was quantified by measuring GFP expression in the cells by an in house developed MSM laser microscope (Tibotec, Beerse, Belgium). The EC50 was defined as the 50% inhibitory concentration for GFP expression. In parallel, compounds were incubated for three days in a set of white 384-well microtiter plates (Corning) and the cytotoxicity of compounds in HeLa cells was determined by measuring the ATP content of the cells using the ATPlite kit (Perkin Elmer, Zaventem, Belgium) according to the manufacturer's instructions. The CC50 was defined as the 50% concentration for cytotoxicity.

By EC50 is commonly meant the concentration giving half of the maximal effect. For the molecule `C[C@@H]1c2ccccc2CCN1C(=O)c1cc(C2CC2)n2nc(-c3ccc(N4CC[C@H](C(=O)O)C4)cc3F)cc2c1` [Compound 7, (3S)-1-(4-{7-Cyclopropyl-5-[(1R)-1-methyl-1,2,3,4-tetrahydroisoquinoline-2-carbonyl]pyrazolo[1,5-a]pyridin-2-yl}-3-fluorophenyl)pyrrolidine-3-carboxylic Acid], the CC50 at 3 days in “in vitro” was 48 µM. In addition, the EC50 in the data set with rgRSV224 virus was 0.064 µM.
Taken in the same sequence, the figures for `CCc1cc(C(=O)N2CCc3ccccc3[C@H]2C)cc2cc(-c3ccc([C@H]4C[C@@H]4C(N)=O)cc3F)cn12` [Compound 2] were 52.7 µM and 0.344 µM.
Taken in the same sequence, the figures for `C[C@@H]1c2ccccc2CCN1C(=O)c1cc(C2CC2)n2c(F)c(-c3ccc([C@@H]4C[C@H]4C(=O)O)cc3F)nc2n1` (mixture of isomers) [Compound 25, trans-2-(4-{5-cyclopropyl-3-fluoro-7-[(1R)-1-methyl-1,2,3,4-tetrahydroisoquinoline-2-carbonyl]imidazo[1,2-a]pyrimidin-2-yl}-3-fluorophenyl)cyclopropane-1-carboxylic Acid] were 22.3 µM and 0.112 µM.
Taken in the same sequence, the figures for `C[C@@H]1c2ccccc2CCN1C(=O)c1cc(C2CC2)n2nc(-c3ccc(N4CC[C@H](C(N)=O)C4)cc3F)nc2c1` [Compound 20, (3S)-1-(4-{5-Cyclopropyl-7-[(1R)-1-methyl-1,2,3,4-tetrahydroisoquinoline-2-carbonyl]-[1,2,4]triazolo[1,5-a]pyridin-2-yl}-3-fluorophenyl)pyrrolidine-3-carboxamide] were 45.6 µM and 0.102 µM.
As to `C[C@@H]1c2ccccc2CCN1C(=O)c1cc(C2CC2)n2nc(-c3ccc(N4CC[C@H](C(=O)O)C4)cc3F)nc2c1` [Compound 19, (3S)-1-(4-{5-Cyclopropyl-7-[(1R)-1-methyl-1,2,3,4-tetrahydroisoquinoline-2-carbonyl]-[1,2,4]triazolo[1,5-a]pyridin-2-yl}-3-fluorophenyl)pyrrolidine-3-carboxylic Acid], the CC50 at 3 days in the data set “in vitro” came out at 60.9 µM. Further, in the data set on rgRSV224 virus, the EC50 was 0.1 µM.
Taken in the same sequence, the figures for `C[C@@H]1c2ccccc2CCN1C(=O)c1cc(C2CC2)n2nc(-c3ccc(C4C[C@@H]4C(=O)O)cc3F)nc2c1` (relative stereo) [Compound 17, cis-2-(4-{5-Cyclopropyl-7-[(1R)-1-methyl-1,2,3,4-tetrahydroisoquinoline-2-carbonyl]-[1,2,4]triazolo[1,5-a]pyridin-2-yl}-3-fluorophenyl)cyclopropane-1-carboxylic Acid] were greater than 100 µM and 2.01 µM.
The corresponding values for `CCc1cc(C(=O)N2CCc3ccccc3[C@H]2C)cc2cc(-c3ccc([C@H]4C[C@@H]4C(=O)O)cc3F)cn12` [Compound 1, (1S,2S)-2-(4-{5-Ethyl-7-[(1R)-1-methyl-1,2,3,4-tetrahydroisoquinoline-2-carbonyl]indolizin-2-yl}-3-fluorophenyl)cyclopropane-1-carboxylic Acid] are 45.1 µM and 0.195 µM.
In the case of `C[C@@H]1c2ccccc2CCN1C(=O)c1cc(C2CC2)n2nc(-c3ccc(C4C[C@H]4C(N)=O)cc3F)nc2c1` (relative stereo) [Compound 18, trans-2-(4-{5-Cyclopropyl-7-[(1R)-1-methyl-1,2,3,4-tetrahydroisoquinoline-2-carbonyl]-[1,2,4]triazolo[1,5-a]pyridin-2-yl}-3-fluorophenyl)cyclopropane-1-carboxamide], the CC50 at 3 days in the data set “in vitro” came out at 47.9 µM. Besides, the EC50 with rgRSV224 virus was found to be 0.178 µM.
For `CCc1cc(C(=O)N2CCc3ccccc3[C@H]2C)cc2cc(-c3ccc(N4CC[C@H](C(=O)O)C4)cc3F)cn12` [Compound 3, (3S)-1-(4-{5-Ethyl-7-[(1R)-1-methyl-1,2,3,4-tetrahydroisoquinoline-2-carbonyl]indolizin-2-yl}-3-fluorophenyl)pyrrolidine-3-carboxylic Acid], the CC50 at 3 days in “in vitro” came to 44 µM. The 50% effective concentration (EC50) with rgRSV224 virus came out at 0.218 µM.
In the data set “in vitro”, `C[C@@H]1c2ccccc2CCN1C(=O)c1cc(C2CC2)n2nc(-c3ccc(N4CC[C@H](C(N)=O)C4)cc3F)cc2c1` [Compound 8, (3S)-1-(4-{7-Cyclopropyl-5-[(1R)-1-methyl-1,2,3,4-tetrahydroisoquinoline-2-carbonyl]pyrazolo[1,5-a]pyridin-2-yl}-3-fluorophenyl)pyrrolidine-3-carboxamide] gave a CC50 at 3 days of 53.4 µM. The EC50 in the data set with rgRSV224 virus was 0.054 µM.
For `C[C@@H]1c2ccccc2CCN1C(=O)c1cc(C2CC2)n2nc(-c3ccc(C4C[C@H]4C(=O)O)cc3F)cc2c1F` (relative stereo) [Compound 6, trans-2-(4-{7-Cyclopropyl-4-fluoro-5-[(1R)-1-methyl-1,2,3,4-tetrahydroisoquinoline-2-carbonyl]pyrazolo[1,5-a]pyridin-2-yl}-3-fluorophenyl)cyclopropane-1-carboxylic Acid], in the data set “in vitro”, the CC50 at 3 days is 50.2 µM. In addition, the EC50 in the data set on rgRSV224 virus stood at 0.09 µM.
The corresponding values for `C[C@@H]1c2ccccc2CCN1C(=O)c1cc2cc(-c3ccc(N4CC[C@H](C(=O)O)C4)cc3F)nn2c(C2CC2)n1` [Compound 21, (3S)-1-(4-{7-Cyclopropyl-5-[(1R)-1-methyl-1,2,3,4-tetrahydroisoquinoline-2-carbonyl]pyrazolo[1,5-c]pyrimidin-2-yl}-3-fluorophenyl)pyrrolidine-3-carboxylic Acid] are 29.8 µM and 0.564 µM.
As to `C[C@@H]1c2ccccc2CCN1C(=O)c1cc(C2CC2)n2cc(-c3ccc(C4C[C@H]4C(=O)O)cc3F)nc2n1` (relative stereo) [Compound 24, trans-2-(4-{5-Cyclopropyl-7-[(1R)-1-methyl-1,2,3,4-tetrahydroisoquinoline-2-carbonyl]imidazo[1,2-a]pyrimidin-2-yl}-3-fluorophenyl)cyclopropane-1-carboxylic Acid], the CC50 at 3 days in the data set “in vitro” was 69.7 µM. Further, in the data set on rgRSV224 virus, the EC50 came out at 0.105 µM.
Taken in the same sequence, the figures for `C[C@@H]1c2ccccc2CCN1C(=O)c1cc(C2CC2)n2cc(-c3ccc(N4CC[C@H](C(N)=O)C4)cc3F)nc2n1` [Compound 28, (3S)-1-(4-{5-Cyclopropyl-7-[(1R)-1-methyl-1,2,3,4-tetrahydroisoquinoline-2-carbonyl]imidazo[1,2-a]pyrimidin-2-yl}-3-fluorophenyl)pyrrolidine-3-carboxamide] were 22.3 µM and 0.112 µM.
Taken in the same sequence, the figures for `CCc1cc(C(=O)N2CCc3ccccc3[C@H]2C)cc2cc(-c3ccc(C4C[C@H]4C(=O)O)cc3F)nn12` (relative stereo) [Compound 4, Trans-2-(4-{7-ethyl-5-[(1R)-1-methyl-1,2,3,4-tetrahydroisoquinoline-2-carbonyl]pyrazolo[1,5-a]pyridin-2-yl}-3-fluorophenyl)cyclopropane-1-carboxylic Acid] were 57.6 µM and 0.219 µM.
In the case of `C[C@@H]1c2ccccc2CCN1C(=O)c1cc(C2CC2)n2nc(-c3ccc(C4C[C@H]4C(=O)O)cc3F)nc2c1` (relative stereo) [Compound 16, trans-2-(4-{5-Cyclopropyl-7-[(1R)-1-methyl-1,2,3,4-tetrahydroisoquinoline-2-carbonyl]-[1,2,4]triazolo[1,5-a]pyridin-2-yl}-3-fluorophenyl)cyclopropane-1-carboxylic Acid], the CC50 at 3 days in “in vitro” came to 79.4 µM. The EC50 in the data set on rgRSV224 virus is 0.182 µM.
In “in vitro”, `CCc1cc(C(=O)N2CCc3ccccc3[C@H]2C)c(C)c2cc(-c3ccc(N4CC[C@H](C(=O)O)C4)cc3F)nn12` [Compound 9, (3S)-1-(4-{7-Ethyl-4-methyl-5-[(1R)-1-methyl-1,2,3,4-tetrahydroisoquinoline-2-carbonyl]pyrazolo[1,5-a]pyridin-2-yl}-3-fluorophenyl)pyrrolidine-3-carboxylic Acid] returned a CC50 at 3 days of 50.6 µM. In addition, in the data set with rgRSV224 virus, the EC50 was determined as 0.596 µM.
Taken in the same sequence, the figures for `CCc1cc(C(=O)N2CCc3ccccc3[C@H]2C)c(OC)c2cc(-c3ccc(C4C[C@H]4C(=O)O)cc3F)nn12` (relative stereo) [Compound 5, trans-2-(4-{7-Ethyl-4-methoxy-5-[(1R)-1-methyl-1,2,3,4-tetrahydroisoquinoline-2-carbonyl]pyrazolo[1,5-a]pyridin-2-yl}-3-fluorophenyl)cyclopropane-1-carboxylic Acid] were 47.2 µM and 1.7 µM.
Taken in the same sequence, the figures for `C[C@@H]1c2ccccc2CCN1C(=O)c1cc(C2CC2)n2c(F)c(-c3ccc([C@H]4C[C@H]4C(=O)O)cc3F)nc2n1` (mixture of isomers) [Compound 26, cis-2-(4-{5-cyclopropyl-3-fluoro-7-[(1R)-1-methyl-1,2,3,4-tetrahydroisoquinoline-2-carbonyl]imidazo[1,2-a]pyrimidin-2-yl}-3-fluorophenyl)cyclopropane-1-carboxylic Acid] were 77.2 µM and 3.42 µM.
Taken in the same sequence, the figures for `C[C@@H]1c2ccccc2CCN1C(=O)c1cc2cc(-c3ccc(N4CC[C@H](C(N)=O)C4)cc3F)nn2c(C2CC2)n1` [Compound 22, (3S)-1-(4-{7-Cyclopropyl-5-[(1R)-1-methyl-1,2,3,4-tetrahydroisoquinoline-2-carbonyl]pyrazolo[1,5-c]pyrimidin-2-yl}-3-fluorophenyl)pyrrolidine-3-carboxamide] were greater than 100 µM and 0.87 µM.
`CNC(=O)[C@H]1CCN(c2ccc(-c3cc4cc(C(=O)N5CCc6ccccc6[C@H]5C)nc(C5CC5)n4n3)c(F)c2)C1` [Compound 23, (3S)-1-(4-{7-Cyclopropyl-5-[(1R)-1-methyl-1,2,3,4-tetrahydroisoquinoline-2-carbonyl]pyrazolo[1,5-c]pyrimidin-2-yl}-3-fluorophenyl)-N-methylpyrrolidine-3-carboxamide] had a CC50 at 3 days in the data set “in vitro” greater than 100 µM. Also, the 50% effective concentration (EC50) in the data set on rgRSV224 virus stood at 0.882 µM.
Taken in the same sequence, the figures for `C[C@@H]1c2ccccc2CCN1C(=O)c1cc(C2CC2)n2nc(-c3ccc(N4CC[C@H](C(N)=O)C4)cc3F)cc2c1F` [Compound 10, (3S)-1-(4-{7-Cyclopropyl-4-fluoro-5-[(1R)-1-methyl-1,2,3,4-tetrahydroisoquinoline-2-carbonyl]pyrazolo[1,5-a]pyridin-2-yl}-3-fluorophenyl)pyrrolidine-3-carboxamide] were 40.4 µM and 0.062 µM.
